Patent US20240409585A1, “MACROCYCLIC IMMUNOMODULATORS” (priority 2021, published 2024)
Bridge positions count the residues as written; N and C are the ends. Square brackets hold non-standard residues; d marks the D form. Peptide text beside a SMILES is read from it. * marks the point of attachment. ξ: configuration not given here. Phe(3-CF3) = N[C@@H](Cc1cccc(C(F)(F)F)c1)C(=O)O; Ala(morpholin-4-yl) = N[C@@H](CN1CCOCC1)C(=O)O; Phe(3-COOH) = N[C@@H](Cc1cccc(C(=O)O)c1)C(=O)O; Phe(4-COOH) = N[C@@H](Cc1ccc(C(=O)O)cc1)C(=O)O; Bip = N[C@@H](Cc1ccc(-c2ccccc2)cc1)C(=O)O; Phe(3-Me) = Cc1cccc(C[C@H](N)C(=O)O)c1; 1Nal = N[C@@H](Cc1cccc2ccccc12)C(=O)O; 4Pal = N[C@@H](Cc1ccncc1)C(=O)O; 2Thi = N[C@@H](Cc1cccs1)C(=O)O; Cha = N[C@@H](CC1CCCCC1)C(=O)O; Cit = NC(=O)NCCC[C@H](N)C(=O)O; Ile(3ξ) = CCC(C)[C@H](N)C(=O)O; AllylGly = C=CC[C@H](N)C(=O)O; Thr(3ξ) = CC(O)[C@H](N)C(=O)O; Carboxymethyl = O=C(O)C*; NMeA = CN[C@@H](C)C(=O)O; Dab = NCC[C@H](N)C(=O)O; Dap = NC[C@H](N)C(=O)O; Aib = CC(C)(N)C(=O)O; ξC = NC(CS)C(=O)O

Target: T1, PE-labeled human PD-L1-Ig binding to Jurkat cell line over-expressing human PD-1 (Jurkat-PD-1) (Homo sapiens, UniProt Q15116)
T1 construct: expressed in transfected cells; host or cells: Jurkat
Test: Jurkat-PD-1 Cell Binding High-Content Screening Assay (CBA): Method 1
Conditions: Jurkat HPDL1 PD1 IC50 (Method 1), cells printed in nM

T1 sequence (Q15116 25-288): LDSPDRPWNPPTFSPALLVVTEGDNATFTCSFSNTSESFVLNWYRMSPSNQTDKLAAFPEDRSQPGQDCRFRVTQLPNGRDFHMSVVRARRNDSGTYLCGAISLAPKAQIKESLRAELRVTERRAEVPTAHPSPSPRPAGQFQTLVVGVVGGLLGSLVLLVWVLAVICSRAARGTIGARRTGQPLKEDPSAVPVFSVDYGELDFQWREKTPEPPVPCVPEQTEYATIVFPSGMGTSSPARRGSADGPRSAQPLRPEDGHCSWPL

Row | Compound | IC50
1 | CC(C)C[C@H]1NC(=O)[C@H](C)N(C)C(=O)[C@H](Cc2ccc(C(=O)O)cc2)NC(=O)[C@H](Cc2ccc(-c3ccccc3)cc2)NC(=O)[C@H](Cc2ccc(C(=O)O)cc2)NC(=O)[C@H](Cc2cccc(C(F)(F)F)c2)NC(=O)[C@H](CC(=O)O)NC(=O)[C@H](Cc2ccc(C(=O)O)cc2)NC(=O)[C@H](CN2CCOCC2)NC(=O)CSC[C@@H](C(=O)N[C@@H](CCN)C(N)=O)NC(=O)[C@H](CCC(=O)O)NC(=O)[C@H](C(C)C)NC(=O)[C@H](CC2CCCCC2)NC(=O)[C@H](CCN)NC1=O [Example 2268] ({CH2CO}-[Ala(morpholin-4-yl)][Phe(4-COOH)]D[Phe(3-CF3)][Phe(4-COOH)][Bip][Phe(4-COOH)][NMeA][dL][Dab][Cha]VEC[Dab]-NH2; thioether N-14) | 1.3 nM

Same assay, conditions: Jurkat-hPD-1 cells, PE-labeled PD-L1-Ig 20 nM final; read-out: Jurkat HPDL1 PD1 IC50 (uM) (Method 1)

Row | IC50 | Compound
2 | 60 nM | CC(C)C[C@@H]1NC(=O)[C@H](CCN)NC(=O)[C@@H](CC(C)C)NC(=O)[C@H](C)N(C)C(=O)[C@H](Cc2cnc[nH]2)NC(=O)[C@H](Cc2ccc(-c3ccccc3)cc2)NC(=O)[C@H](C(C)C)NC(=O)[C@H](Cc2c[nH]c3ccccc23)NC(=O)[C@H](CC(=O)O)NC(=O)[C@H](Cc2ccc(OCC(=O)O)cc2)NC(=O)[C@H](CC(N)=O)NC(=O)CSC[C@@H](C(=O)N[C@@H](C)C(N)=O)NC(=O)[C@H]([C@@H](C)O)NC(=O)[C@H](C(C)C)NC1=O [Compound 1388] ({CH2CO}-NY(Carboxymethyl)DWV[Bip]H[NMeA][dL][Dab]LVTCA-NH2; thioether N-14)
3 | 950 nM | CCC(C)[C@@H]1NC(=O)[C@H](Cc2ccc(-c3ccccc3)cc2)NC(=O)[C@H](C(C)C)NC(=O)[C@H](Cc2c[nH]c3ccccc23)NC(=O)[C@H](CC(N)=O)NC(=O)[C@H](Cc2ccc(OCC(=O)O)cc2)NC(=O)[C@H](Cc2ccncc2)NC(=O)CSC[C@@H](C(=O)N[C@@H](CCCCN)C(N)=O)NC(=O)[C@H](C(C)O)NC(=O)[C@H](C(C)C)NC(=O)[C@H](CC(C)C)NC(=O)[C@H](CC(N)=O)NC(=O)[C@@H](CC(C)C)NC(=O)[C@H](C)N(C)C1=O (stereo partly drawn) [Compound 2055] ({CH2CO}-[4Pal]Y(Carboxymethyl)NWV[Bip][Ile(3ξ)][NMeA][dL]NLV[Thr(3ξ)]CK-NH2; thioether N-14)
4 | 420 nM | CC(C)C[C@@H]1NC(=O)[C@H](Cc2c[nH]c3ccccc23)NC(=O)[C@H](CC(=O)O)NC(=O)[C@H](Cc2ccc(O)cc2)NC(=O)[C@H](Cc2ccccc2)NC(=O)CSC[C@@H](C(=O)NCC(N)=O)NC(=O)[C@H](CO)NC(=O)[C@H](C(C)C)NC(=O)[C@H](CC(C)C)NC(=O)[C@H](CC(N)=O)NC(=O)C(C)(C)NC(=O)[C@H](C)N(C)C(=O)[C@H](C(C)C)NC(=O)[C@H](Cc2ccc(-c3ccccc3)cc2)NC1=O [Compound 1818] ({CH2CO}-FYDWL[Bip]V[NMeA][Aib]NLVSCG-NH2; thioether N-14)
5 | 10 nM | CC(C)C[C@@H]1NC(=O)[C@H](Cc2c[nH]c3ccccc23)NC(=O)[C@H](CC(=O)O)NC(=O)[C@H](Cc2ccncc2)NC(=O)[C@H](CN)NC(=O)CSC[C@@H](C(=O)NCC(N)=O)NC[C@H](CO)NC(=O)[C@H](C(C)C)NC(=O)[C@H](CC2CCCCC2)NC(=O)[C@H](CC(N)=O)NC(=O)[C@@H](CC(C)C)NC(=O)[C@H](C)N(C)C(=O)[C@H](C(C)C)NC(=O)[C@H](Cc2ccc(-c3ccccc3)cc2)NC1=O [Compound 1625]
6 | 20 nM | CC(C)C[C@H]1NC(=O)[C@H](C)N(C)C(=O)[C@H](CCCNC(N)=O)NC(=O)[C@H](Cc2ccc(-c3ccccc3)cc2)NC(=O)[C@H](C(C)C)NC(=O)[C@H](Cc2c[nH]c3ccccc23)NC(=O)[C@H](CC(=O)O)NC(=O)[C@H](Cc2ccc(O)cc2)NC(=O)[C@H](Cc2ccccc2)NC(=O)CSC[C@@H](C(=O)N[C@@H](C)C(N)=O)NC(=O)[C@H]([C@@H](C)O)NC(=O)[C@H](C(C)C)NC(=O)[C@H](CC2CCCCC2)NC(=O)[C@H](CCCNC(=N)N)NC1=O [Compound 1505] ({CH2CO}-FYDWV[Bip][Cit][NMeA][dL]R[Cha]VTCA-NH2; thioether N-14)
7 | 20 nM | CC(C)C[C@H]1NC(=O)[C@H](C)N(C)C(=O)[C@H](CCCNC(N)=O)NC(=O)[C@H](Cc2ccc(-c3ccccc3)cc2)NC(=O)[C@H](C(C)C)NC(=O)[C@H](Cc2c[nH]c3ccccc23)NC(=O)[C@H](CC(=O)O)NC(=O)[C@H](Cc2ccc(O)cc2)NC(=O)[C@H](Cc2ccc(OCC(=O)O)cc2)NC(=O)CSC[C@@H](C(=O)N[C@@H](C)C(N)=O)NC(=O)[C@H]([C@@H](C)O)NC(=O)[C@H](C(C)C)NC(=O)[C@H](CC2CCCCC2)NC(=O)[C@H](CCCNC(=N)N)NC1=O [Compound 1504] ({CH2CO}-Y(Carboxymethyl)YDWV[Bip][Cit][NMeA][dL]R[Cha]VTCA-NH2; thioether N-14)
8 | 200 nM | CC(C)C[C@@H]1NC(=O)[C@H](CCN)NC(=O)[C@@H](CC(C)C)NC(=O)[C@H](C)N(C)C(=O)[C@H](CCCNC(=N)N)NC(=O)[C@H](Cc2ccc(-c3ccccc3)cc2)NC(=O)[C@H](C(C)C)NC(=O)[C@H](Cc2cccs2)NC(=O)[C@H](CC(=O)O)NC(=O)[C@H](Cc2ccc(O)cc2)NC(=O)[C@H](CC(N)=O)NC(=O)CSC[C@@H](C(=O)N[C@@H](C)C(N)=O)NC(=O)[C@H]([C@@H](C)O)NC(=O)[C@H](C(C)C)NC1=O [Compound 1218] ({CH2CO}-NYD[2Thi]V[Bip]R[NMeA][dL][Dab]LVTCA-NH2; thioether N-14)
9 | 350 nM | CC(C)C[C@@H]1NC(=O)[C@H](CCCNC(=N)N)NC(=O)[C@H](Cc2cccc3ccccc23)NC(=O)[C@H](C)N(C)C(=O)[C@H](CCCNC(=N)N)NC(=O)[C@H](Cc2ccc(-c3ccccc3)cc2)NC(=O)[C@H](C(C)C)NC(=O)[C@H](Cc2c[nH]c3ccccc23)NC(=O)[C@H](CC(=O)O)NC(=O)[C@H](Cc2ccc(O)cc2)NC(=O)[C@H](CC(N)=O)NC(=O)CSC[C@@H](C(=O)N[C@@H](C)C(N)=O)NC(=O)[C@H]([C@@H](C)O)NC(=O)[C@H](C(C)C)NC1=O [Compound 1185] ({CH2CO}-NYDWV[Bip]R[NMeA][1Nal]RLVTCA-NH2; thioether N-14)
10 | 50 nM | C=CC[C@@H]1NC(=O)[C@H](Cc2cccc(C)c2)NC(=O)[C@H](CC(=O)O)NC(=O)[C@H](Cc2ccncc2)NC(=O)[C@H](Cc2ccc(OCC(=O)O)cc2)NC(=O)CSCC(C(=O)NCC(N)=O)NC(=O)[C@H](CC=C)NC(=O)[C@H](C(C)C)NC(=O)[C@H](CC(C)C)NC(=O)[C@H](CC(N)=O)NC(=O)[C@@H](CC(C)C)NC(=O)[C@H](C)N(C)C(=O)[C@H](C(C)C)NC(=O)[C@H](Cc2ccc(-c3ccccc3)cc2)NC1=O (stereo partly drawn) [Compound 1880] ({CH2CO}-Y(Carboxymethyl)[4Pal]D[Phe(3-Me)][AllylGly][Bip]V[NMeA][dL]NLV[AllylGly][ξC]G-NH2; thioether N-14)
11 | 10 nM | CC(C)C[C@@H]1NC(=O)[C@H](Cc2c[nH]c3ccccc23)NC(=O)[C@H](CC(=O)O)NC(=O)[C@H](Cc2cccc(C(=O)O)c2)NC(=O)[C@H](CN)NC(=O)CSC[C@@H](C(=O)NCC(N)=O)NC(=O)[C@H](CO)NC(=O)[C@H](C(C)C)NC(=O)[C@H](CC2CCCCC2)NC(=O)[C@H](CCN)NC(=O)[C@@H](CC(C)C)NC(=O)[C@H](C)N(C)C(=O)[C@H](C(C)C)NC(=O)[C@H](Cc2ccc(-c3ccccc3)cc2)NC1=O [Compound 1877] ({CH2CO}-[Dap][Phe(3-COOH)]DWL[Bip]V[NMeA][dL][Dab][Cha]VSCG-NH2; thioether N-14)
